Source: ChEMBL document CHEMBL2062419, “Synthesis and antiviral activities of hexadecyloxypropyl prodrugs of acyclic nucleoside phosphonates containing guanine or hypoxanthine and a (S)-HPMP or PEE acyclic moiety” (Eur J Med Chem, 2012)
Active and inactive are the calls of the source. The rule behind the calls is not given here.

Legend:
[1] = Selectivity index, ratio of cytotoxic CC50 for HEL cells to EC50 for Vaccinia virus Lederie; format: toxicity, cell-based; conditions: human, read-out: Ratio CC50/EC50
[2] = Selectivity index, ratio of cytotoxic CC50 for HEL cells to EC50 for HSV2 G
Human alphaherpesvirus 2 = assay: Antiviral activity against HSV2 G infected in HEL cells by viral CPE assay; format: functional, organism-based; conditions: Human alphaherpesvirus 2, strain G
[3] = Selectivity index, ratio of cytotoxic CC50 for HEL cells to EC50 for VZV 07/01
Human alphaherpesvirus 3 [4] = assay: Antiviral activity against thymidine kinase positive VZV OKa infected in HEL cells by plaque formation assay; format: functional, cell-based, Human herpesvirus 3 strain Oka vaccine; conditions: Human alphaherpesvirus 3, OKa
Human betaherpesvirus 5 [5] = assay: Antiviral activity against HCMV AD169 infected in HEL cells by viral CPE assay; format: functional, organism-based; conditions: Human betaherpesvirus 5, AD169, HEL
[6] = Selectivity index, ratio of cytotoxic CC50 for HEL cells to EC50 for VZV YS/R
Coxsackievirus B4 = assay: Antiviral activity against Human coxsackievirus B4 by viral CPE assay; format: functional, organism-based
[7] = system: Human immunodeficiency virus 2; assay: Antiviral activity against HIV2 ROD infected in human CEM cells assessed as reduction in virus-induced CEM giant cell formation incubated for 4 days at 37 degC by microscopy; format: functional, organism-based; conditions: ISOLATE ROD, CCRF-CEM
Human respirovirus 3 = assay: Antiviral activity against Human parainfluenza virus 3 by viral CPE assay; format: functional, organism-based
Felid alphaherpesvirus 1 = assay: Antiviral activity against Feline herpesvirus infected in CRFK cells by viral CPE assay; format: functional, organism-based; conditions: Felid alphaherpesvirus 1, CRFK
Human alphaherpesvirus 3 [8] = assay: Antiviral activity against thymidine kinase negative VZV YS/R infected in HEL cells by plaque formation assay; format: functional, organism-based; conditions: Human alphaherpesvirus 3, YS/R
Vaccinia virus = assay: Antiviral activity against Vaccinia virus Lederie infected in HEL cells by viral CPE assay; format: functional, organism-based; conditions: Orthopoxvirus vaccinia
[9] = Selectivity index, ratio of cytotoxic CC50 for HEL cells to EC50 for VZV YS
Human alphaherpesvirus 1 [10] = assay: Antiviral activity against thymidine kinase negative and ACV resistant HSV1 KOS infected in HEL cells by viral CPE assay; format: functional, organism-based; conditions: Human alphaherpesvirus 1, KOS
[11] = Selectivity index, ratio of cytotoxic CC50 for HEL cells to EC50 for ACV resistant HSV1 KOS
[12] = system: Vesicular stomatitis virus; assay: Antiviral activity against VSV by viral CPE assay; format: functional, organism-based
Human alphaherpesvirus 3 [13] = assay: Antiviral activity against thymidine kinase positive VZV YS infected in HEL cells by plaque formation assay; format: functional, organism-based; conditions: Human alphaherpesvirus 3, YS
[14] = Selectivity index, ratio of cytotoxic CC50 for HEL cells to EC50 for HSV1 KOS
Human alphaherpesvirus 3 [15] = assay: Antiviral activity against thymidine kinase negative VZV 07/01 infected in HEL cells by plaque formation assay; format: functional, organism-based; conditions: Human alphaherpesvirus 3, 07/01, HEL
[16] = system: Mammalian orthoreovirus 1; assay: Antiviral activity against Reovirus 1 by viral CPE assay; format: functional, organism-based
[17] = Selectivity index, ratio of cytotoxic CC50 for HEL cells to EC50 for VZV Oka
Punta Toro virus = assay: Antiviral activity against Punta Toro virus by viral CPE assay; format: functional, organism-based
[18] = Cytotoxicity against HEL cells assessed as effect on cell morphology incubated for 3 days by microscopy; format: cell-based; conditions: human
Human alphaherpesvirus 1 [19] = assay: Antiviral activity against HSV1 KOS infected in HEL cells by viral CPE assay; format: functional, organism-based; conditions: Human alphaherpesvirus 1, KOS
[20] = system: Human immunodeficiency virus 1; assay: Antiviral activity against HIV1 3B infected in human CEM cells assessed as reduction in virus-induced CEM giant cell formation incubated for 4 days at 37 degC by microscopy; format: functional, organism-based; conditions: CCRF-CEM
Sindbis virus = assay: Antiviral activity against Sindbis virus by viral CPE assay; format: functional, organism-based
Human betaherpesvirus 5 [21] = assay: Antiviral activity against HCMV Davis infected in HEL cells by viral CPE assay; format: functional, organism-based; conditions: Human betaherpesvirus 5, Davis
[22] = Selectivity index, ratio of cytotoxic CC50 for HEL cells to EC50 for HCMV Davis
HEL = assay: Cytotoxicity against HEL cells assessed as effect on cell growth incubated for 3 days by Coulter counter assay; format: cell-based; conditions: human, 72 h
[23] = Selectivity index, ratio of cytotoxic CC50 for HEL cells to EC50 for HCMV AD169
[24] = system: Respiratory syncytial virus; assay: Antiviral activity against Respiratory syncytial virus Long by viral CPE assay; format: functional, organism-based
[25] = Selectivity index, ratio of cytotoxic CC50 for HEL cells to EC50 for Feline herpesvirus; format: toxicity, cell-based; conditions: human, read-out: Ratio CC50/EC50

SMILES	selectivity ratio [1]	Ratio CC50/EC50 [2]	EC50 (Human alphaherpesvirus 2)	Ratio CC50/EC50 [3]	EC50 (Human alphaherpesvirus 3 [4])	EC50 (Human betaherpesvirus 5 [5])	Ratio CC50/EC50 [6]	EC50 (Felid alphaherpesvirus 1)	EC50 (Vaccinia virus)	EC50 (Human alphaherpesvirus 1 [10])	Ratio CC50/EC50 [11]	Ratio CC50/EC50 [14]	EC50 (Human alphaherpesvirus 3 [15])	Ratio CC50/EC50 [17]	MCC at 72 h [18]	EC50 (Human alphaherpesvirus 1 [19])	EC50 (Human betaherpesvirus 5 [21])	Ratio CC50/EC50 [22]	CC50 (HEL)	Ratio CC50/EC50 [23]	other results
CCCCCCCCCCCCCCCCOCCCOP(=O)(CO[C@H](CO)Cn1cnc2c(=O)[nH]c(N)nc21)OCCCOCCCCCCCCCCCCCCCC	> 2.5	>5	23200 nM	>81	3900 nM	11900 nM	>57	> 113000 nM	44700 nM	30500 nM	>4	>9	1400 nM	>29	≥ 22.6 µM	11900 nM	10100 nM	>11	> 113000 nM	>9	Activity (Coxsackievirus B4): inactive; Activity [7]: inactive; Activity (Human respirovirus 3): inactive; EC50 (Human alphaherpesvirus 3 [8]): 2000 nM; Ratio CC50/EC50 [9]: >94; Activity [12]: inactive; EC50 (Human alphaherpesvirus 3 [13]): 1200 nM; Activity [16]: inactive; Activity (Punta Toro virus): inactive; Activity [20]: inactive; Activity (Sindbis virus): inactive; Activity [24]: inactive
Nc1nc2c(ncn2C[C@@H](CO)OCP(=O)(O)O)c(=O)[nH]1	35	50	780 nM	186	560 nM	1800 nM	–	720 nM	1100 nM	780 nM	50	50	210 nM	70	> 100 µM	780 nM	1500 nM	26	39000 nM	22	selectivity ratio [25]: 157
CCCCCCCCCCCCCCCCOCCCOP1(=O)CO[C@@H](Cn2cnc3c(=O)[nH]c(N)nc32)CO1 (mixture of isomers)	146	238	80 nM	3800	7 nM	5 nM	3800	430 nM	130 nM	90 nM	211	559	5 nM	2700	≥ 171 µM	34 nM	2 nM	9500	19000 nM	3800	Activity (Coxsackievirus B4): inactive; Activity [7]: inactive; Activity (Human respirovirus 3): inactive; EC50 (Human alphaherpesvirus 3 [8]): 5 nM; Ratio CC50/EC50 [9]: 19000; Activity [12]: inactive; EC50 (Human alphaherpesvirus 3 [13]): 1 nM; Activity [16]: inactive; Activity (Punta Toro virus): inactive; Activity [20]: inactive; Activity (Sindbis virus): inactive; selectivity ratio [25]: 398; Activity [24]: inactive
